# From paper PMC9331544, “Molecular Physicochemical Properties of Selected Pesticides as Predictive Factors for Oxidative Stress and Apoptosis-Dependent Cell Death in Caco-2 and HepG2 Cells” (International Journal of Molecular Sciences, 2022)
# Read-outs that look alike come from different tables or passages of the source.
# Assays:
# HepG2 cells = conditions: 24 h; for HepG2 FL2/FL1 ratio: mean ± SD
# Excerpt: (§1) Given the role of mitochondria in both oxidative stress and cell death (apoptosis), we evaluated the mitochondrial membrane potential (MMP) using the JC-1 probe (see methods for details). This probe accumulates in the mitochondria in the form of J-aggregates when in normal mitochondrial conditions (polarized) and presents red fluorescence. By contrast, in unhealthy cells, when depolarization occurs, JC-1 enters the mitochondria in lower concentrations forming monomers inducing a fluorescence shift to green fluorescence, thus the loss of MMP is observed through flow cytometry as a reduction in red (FL2) and an increase in green (FL1) fluorescence, or as a reduction in red/green (FL2/FL1) fluorescence ratio [45, 46].
# (§2) Pesticide-induced oxidative stress and apoptosis/necrosis events were analysed by flow cytometry. For this, one colour and two-colour flow cytometry assays were performed, using a BD Accuri™ C6 cytometer (Franklin Lakes, NJ, USA) equipment for data acquisition. Each assay was performed at least in triplicate (n = 3) and 5000 gated events were collected from each sample. Data analysis was performed using BD Accuri™ C6 Software, version 1.0.264.21 supplied by Becton Dickinson (Franklin Lakes, NJ, USA).
# (§3) Caco-2 and HepG2 cells (handled as described in Section 3.2.1) were seeded in 12-well microplates (at 5 × 10^4 cells/mL density; 750 µL/well), and allowed to adhere and stabilize for 48 h in the incubator. […] Negative control cells (non-exposed cells) were included in each assay. After a 24 h incubation with test solutions, cells were washed with phosphate buffer saline (PBS) solution and then detached from the microplates (as in Section 3.2.1) and placed in centrifuge tubes and centrifuged (5 min, 3000 rpm, bench micro-centrifuge). After eliminating the supernatant, cells were washed in PBS solution through another centrifuge cycle. Then cells were divided before being incubated with the specific markers to assess oxidative stress markers and cell apoptosis/necrosis.
# (§4) Mitochondrial membrane potential was analysed using JC-1 probe following the procedures as described by the manufacturer. Caco-2 and HepG2 cells suspended in PBS were centrifuged (5 min, 3000 rpm, bench micro-centrifuge), the supernatant was removed and 200 μL of JC-1 solution (2 μM; diluted in FBS-free culture media) was added to each sample. The samples were incubated for 20 min at 37 °C (in a CO2 incubator) and then analysed by flow cytometry. Negative control, non-exposed, and positive control cells exposed to the protonophore FCCP (5 μM; carbonyl cyanide p-trifluoromethoxyphenylhydrazone) were performed in each set of experiments.
# Caco-2 cells = conditions: for Caco-2 FL2/FL1 ratio: mean ± SD
# Excerpt: as §1, §2, §3, §4
smiles,measurement,setting,value
"C=CCOC(Cn1ccnc1)c1ccc(Cl)cc1Cl (centres unmarked) [Imazalil, imazalil]",FL2/FL1 ratio reduction (% of control),"HepG2 cells; HepG2, 25 μM",56.22±16.07 % of control
same,HepG2 FL2/FL1 ratio,"HepG2 cells; HepG2, 25 μM",0.10±0.03
same,FL2/FL1 ratio reduction (% of control),"HepG2 cells; HepG2, 50 μM",57.15±8.10 % of control
same,HepG2 FL2/FL1 ratio,"HepG2 cells; HepG2, 50 μM",0.10±0.02
same,"FL2/FL1 ratio reduced, relative to negative control","HepG2 cells; HepG2, 75 μM",3.38 times
same,FL2/FL1 ratio reduction (% of control),"HepG2 cells; HepG2, 75 μM",72.95±0.28 % of control
same,HepG2 FL2/FL1 ratio,"HepG2 cells; HepG2, 75 μM",0.06±0.01
same,FL2/FL1 ratio reduction (% of control),"HepG2 cells; HepG2, 75 μM, listed as IMZ",~ 73 % of control
same,FL2/FL1 ratio reduction (% of control),"Caco-2 cells; Caco-2, 50 μM, 24 h",30.83±9.05 % of control
same,Caco-2 FL2/FL1 ratio,"Caco-2 cells; Caco-2, 50 μM, 24 h",0.55±0.02
same,"FL2/FL1 ratio reduced, relative to negative control","Caco-2 cells; Caco-2, 75 μM, 24 h",1.54 times
same,FL2/FL1 ratio reduction (% of control),"Caco-2 cells; Caco-2, 75 μM, 24 h",34.30±6.61 % of control
same,Caco-2 FL2/FL1 ratio,"Caco-2 cells; Caco-2, 75 μM, 24 h",0.52±0.03
same,FL2/FL1 ratio reduction (% of control),"Caco-2 cells; Caco-2, 75 μM, 24 h, listed as IMZ",~ 34 % of control
same,FL2/FL1 ratio reduction (% of control),"Caco-2 cells; Caco-2, 250 μM, 24 h",96.08±0.47 % of control
same,Caco-2 FL2/FL1 ratio,"Caco-2 cells; Caco-2, 250 μM, 24 h",0.03±0.01
same,change in mitochondrial membrane potential (in words),"Caco-2 cells; Caco-2, 24 h, tested concentrations, listed as IMZ",induced high changes in Caco-2 MMP
